≈ marks a conversion by molar mass, not a printed value.
Key:
human recombinant VEGF = target: T1, human recombinant VEGF (Homo sapiens, UniProt P15692); experiment: VEGF binding competitive ELISA assay; details: compared with BEV stock positive control
T1 construct: purchased R&D Systems
T1 sequence (P15692 1-191 isoform P15692-4): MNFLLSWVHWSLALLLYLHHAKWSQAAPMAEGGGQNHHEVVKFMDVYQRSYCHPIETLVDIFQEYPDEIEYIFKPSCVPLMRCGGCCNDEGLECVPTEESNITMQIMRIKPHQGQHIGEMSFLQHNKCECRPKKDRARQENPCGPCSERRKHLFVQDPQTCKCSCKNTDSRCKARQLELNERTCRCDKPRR
Experimental: Spray-dried powders or as-received API were reconstituted to a 4 mg/mL active in the buffered saline and allowed to dissolve for 60 min. […] Standards were prepared according to the kit protocol.
After incubation, 50 µL of the assay diluent was added to each of the wells of the supplied plate. A total of 200 µL each of the sample (in triplicate) and standards were added to respective wells and incubated for 2 h at ambient temperature. The plate was washed three times with 400 µL of the kit’s wash buffer, then 200 µL of the VEGF-conjugate was added. The plate was incubated for another 2 h, then washed again three times, as previously. A 1:1 mixture of the kit’s color reagent A and B were mixed, then 200 µL was added to each well. After a 30 min incubation at ambient temperature, 50 µL of stop solution was added to each well. The absorbances were read on an M5e plate reader (Molecular Devices, San Jose, CA, USA) using a 450 nm detection wavelength and 540 nm as the blank wavelength for baseline correction. The quantified concentration of unbound VEGF in pg/mL was reported. All samples were analyzed in triplicate.
Briefly, reconstituted simul-spray powders were incubated with VEGF protein in the assay buffer. Next, the quantity of unbound VEGF in the solution was quantified by a commercially available VEGF ELISA assay kit.

physchem = experiment: physchem
Experimental: The solutions were centrifuged to remove excess solids. A total of 50 µL of the supernatant was pipetted into an aluminum pan and placed into a Thermogravimetric Analyzer (Discovery TGA, TA Instruments, New Castle, DE, USA). The sample was heated to 130 °C at a ramp rate of 50 °C/min and then held isothermal for 10 min to allow all of the solvent to evaporate. The final mass of the sample (of the known 50 µL volume) was recorded and used to determine the solubility in mg/mL. Samples were measured in triplicate.
Solubility screening was performed on the three small molecule APIs and the L-leucine excipient in water, 90/10 methanol/water and 80/20 ethanol/water by weight. These solvent ratios were chosen to maximize the solubility of L-leucine and API. Additional details on solubility and formulation selection can be found in the Supplementary Information.

[1] = ligand exchange; cited from earlier work
[2] = Chemical stability in solution; type: physicochemical; details: bevacizumab and cisplatin in the same aqueous solution
[3] = organic solvent or mixture, thermodynamic from solid, Solubility, mg/mL in 90/10 Methanol/Water
[4] = water, thermodynamic from solid, Solubility, mg/mL in Water

VEGF inhibition (in words) (human recombinant VEGF)	Solubility in water at neutral pH (physchem)	solubility (physchem; [3]) [µg/mL]	solubility (physchem; [4]) [µg/mL]	Solubility, mg/mL in 80/20 Ethanol/Water (physchem) [mg/mL]	solubility (physchem; organic solvent or mixture, thermodynamic from solid, Solubility, mg/mL in 80/20 Ethanol/Water) [µg/mL]	solubility (physchem; 80/20 ethanol/water by weight, organic solvent or mixture, thermodynamic from solid, Solubility, mg/mL in 80/20 Ethanol/Water, 80/20 ethanol/water by mass) [µg/mL]	solubility (physchem; 90/10 methanol/water by weight, organic solvent or mixture, thermodynamic from solid, Solubility, mg/mL in 90/10 Methanol/Water, 90/10 methanol/water by mass) [µg/mL]	solubility (physchem; water, Solubility in water at neutral pH, water at neutral pH) [µg/mL]	SMILES	Chemical stability in aqueous solution [1]	Chemical stability when co-dissolved [2]
do not inhibit VEGF measurably	sparingly soluble	< 1000	< 1000						CC(=O)O[C@H]1C(=O)[C@@]2(C)[C@H]([C@H](OC(=O)c3ccccc3)[C@]3(O)C[C@H](OC(=O)[C@H](O)[C@@H](NC(=O)c4ccccc4)c4ccccc4)C(C)=C1C3(C)C)[C@]1(OC(C)=O)CO[C@@H]1C[C@@H]2O [PTX, paclitaxel]		
		2500 (≈ 19.1 mM)	21000 (≈ 160 mM)	2.0 (≈ 15.2 mM)	1700 (≈ 13 mM)				CC(C)C[C@H](N)C(=O)O [L-Leucine, L-leucine]		
do not inhibit VEGF measurably			< 1000			< 1000	25000 (≈ 63.5 mM)	< 100	C#Cc1cccc(Nc2ncnc3cc(OCCOC)c(OCCOC)cc23)c1 [ERL, erlotinib]		

SMILES	VEGF inhibition (in words) (human recombinant VEGF)	Solubility in water at neutral pH (physchem)	solubility (physchem; [3]) [µg/mL]	solubility (physchem; [4]) [µg/mL]	Solubility, mg/mL in 80/20 Ethanol/Water (physchem) [mg/mL]	solubility (physchem; organic solvent or mixture, thermodynamic from solid, Solubility, mg/mL in 80/20 Ethanol/Water) [µg/mL]	solubility (physchem; 80/20 ethanol/water by weight, organic solvent or mixture, thermodynamic from solid, Solubility, mg/mL in 80/20 Ethanol/Water, 80/20 ethanol/water by mass) [µg/mL]	solubility (physchem; 90/10 methanol/water by weight, organic solvent or mixture, thermodynamic from solid, Solubility, mg/mL in 90/10 Methanol/Water, 90/10 methanol/water by mass) [µg/mL]	solubility (physchem; water, Solubility in water at neutral pH, water at neutral pH) [µg/mL]	Chemical stability in aqueous solution [1]	Chemical stability when co-dissolved [2]
N.N.[Cl][Pt][Cl] [CP, cisplatin]	do not inhibit VEGF measurably									not chemically stable in an aqueous solution for longer than a few hours	not chemically stable when co-dissolved in the same solution
